# Assay results reported in patent US20220273590A1, “COMPOUNDS FOR PREVENTION AND TREATMENT OF POST-OPERATIVE COGNITIVE DYSFUNCTION” (ABREXA PHARMACEUTICALS, INC., priority 2019, published 2022).
# Tests used:
# [1] = tested on: animal model of POCD; assay: Novel Object and Novel Location Recognition (NOR/NLR) after abdominal surgery; type: in vivo, Wistar rats
# Experimental: Male Wistar rats (˜350 g) were randomly divided into 4 experimental groups; non-surgery; control abdominal surgery; surgery+acute J147 treatment (7 mg/rat by gavage, 4-5 hours before surgery); surgery+chronic J147 (500 mg/kg food, 1 week before surgery until the end of the study). Timed blood samples were collected. Days 9-11 post surgery, general behavior (Open field: OF) and cognitive performance (Novel Object/Novel Location Recognition: NOR/NLR; Morris Water Maze: MWM) were tested. Day 14, rats were sacrificed and blood and brain tissue were collected for further analyses. (Neuro)inflammation was examined by circulating cytokine levels and microglia activation in the brain. Abdominal surgery was performed as described previously by Hovens et al., 2014. Rats were anaesthetized using sevoflurane (±2.5% in air/O2=2/1) and received 0.01 mg/kg buprenorphine s.c. A heating blanket was used to preserve body temperature. An incision was made along the linea alba and the intestines were exteriorised. The upper mesenteric artery was isolated from surrounding tissue and clamped for a period of 30 minutes during which the intestines and surgical wound were covered with gauze soaked in saline, to prevent dehydration. During this time the animals were equipped with an indwelling jugular vein catheter to mimic insertion of a venous line in patients and allow timed blood sampling. For that, an incision was made at the subclavical region, the jugular vein was freed from surrounding tissue and a catheter was introduced and advanced into the vena cava, just above the right atrium. The other end of the catheter was guided subcutaneously to the head, and fixated on the skull with dental cement. The catheter was filled with PVP dissolved in heparin solution and closed with a plastic plug. After subsequent removal of the mesenteric artery clamp, the intestines were gently placed back and the abdominal wall and skin were closed separately by sutures. Clamping and reperfusion were visually verified by absence or presence of pulsation in the mesenteric artery distal to the clamp site. From induction to recovery, the procedure takes approximately 60 minutes. Post-operatively, the animals were allowed to recover and subsequently were housed individually. Rats were weighed daily at the last hour of the dark period. Maximal weight loss within the first 5 days post-surgery was taken as measure of experienced severity of surgery. Behavioral tests were performed in the dark (active) period of the rats. The lights were turned on at 9:00 p.m. and off at 9:00 a.m. […] General exploratory behavior and anxiety was tested in the Open field (OF) test; spatial learning, spatial memory and cognitive flexibility in the Morris Water Maze (MWM); spatial working memory in the novel location recognition test (NL); the novel object recognition test (NO) for working memory on object recognition. The Novel Object and Novel Location Recognition were tested in random order in one procedure to assess spatial short term memory and object memory. For this test, an open square box (50×50×40 cm) with 2 transparent and two grey walls was used. Objects used in the test were selected from a pilot study, investigating the preferences of rats for different objects. Rats were habituated to the box for 3 minutes, the day before the test. The test consisted of four phases, each phase took 3 minutes. Between each phase there was a break of 45 seconds in which the rat remained in the test box. The first phase was performed in an empty box, in the second phase two identical objects were placed in both corners at the nearest end of the box. In this phase, the rat was allowed to explore both objects. After this exploration phase either a novel object test or novel location test was performed. Before the start of each phase both objects were removed from the box and cleaned with 70% ethanol. […]
# [2] = Plasma levels of J147 at the time of surgery; type: in vivo, Wistar rats; settings: absence of an appropriate peak taken as zero
# Experimental: Male Wistar rats (˜350 g) were randomly divided into 4 experimental groups; non-surgery; control abdominal surgery; surgery+acute J147 treatment (7 mg/rat by gavage, 4-5 hours before surgery); surgery+chronic J147 (500 mg/kg food, 1 week before surgery until the end of the study). Timed blood samples were collected. Days 9-11 post surgery, general behavior (Open field: OF) and cognitive performance (Novel Object/Novel Location Recognition: NOR/NLR; Morris Water Maze: MWM) were tested. Day 14, rats were sacrificed and blood and brain tissue were collected for further analyses. (Neuro)inflammation was examined by circulating cytokine levels and microglia activation in the brain.
# One week before surgery, chronic treatment J147 treatment started and continued until the end of the experiment. The day of surgery, rats for acute treatment received their J147 (4-5 hours before surgery) by gavage, while the designated control rats received vehicle gavage. Rats were subjected to abdominal surgery, and allowed to recover. After that rats were housed individually. […] The first week post-surgery, rats were weighed daily and food intake was measured. […]
# For chronic oral treatment, J147 was added to the food (Teklad 2018, Envigo) at a concentration of 500 mg/kg. […] After surgery food intake was measured daily during the last hour of the light phase. […]
smiles,measurement,setting,value
COc1cccc(/C=N/N(C(=O)C(F)(F)F)c2ccc(C)cc2C)c1 [J147],NOR score (novel object preference),"[1]; Surgery + acute J147, n = 12, random = 50%",60 ± 5%
same,Baseline exploration (% time),"[1]; Surgery + acute J147, n = 15, mean ± SEM",23.6 ± 2.3 % time
same,NLR score (novel location preference),"[1]; Surgery + acute J147, n = 15, random = 50%, significantly different from random",61 ± 4%
same,NLR score (novel location preference),"[1]; Surgery + chronic J147, n = 11, random = 50%, significantly different from random",70 ± 6%
same,NOR score (novel object preference),"[1]; Surgery + chronic J147, n = 12, random = 50%, significantly different from random",58 ± 4%
same,Baseline exploration (% time),"[1]; Surgery + chronic J147, n = 15, mean ± SEM",16.8 ± 2.5 % time
same,difference between the groups in preference for the novel or relocated object,[1]; acute and chronic J147 versus control groups,No significant differences
same,NLR test performance versus random,[1]; both treated groups (acute and chronic J147),performed above random
same,NLR performance compared with other groups,[1]; chronically treated rats,performed best in NLR
same,"NOR, effect of treatment",[1]; chronically treated rats,not affected
same,mean concentration of J147 in plasma during surgery,"[2]; acute J147, 7 mg/rat by gavage 4-5 hours before surgery",3.103 ng/mL
same,concentration at 1 week,"[2]; male, Wistar, rat, plasma, oral, chronic J147, 500 mg/kg food from 1 week before surgery, read-out: mean concentration of J147 in plasma during surgery",0.233 ng/mL
